Earlier results, collected in publication PMC4394704, “Structures and functions of insect arylalkylamine N-acetyltransferase (iaaNAT); a key enzyme for physiological and behavioral switch in arthropods” (Frontiers in Physiology, 2015).
Like-named read-outs stand apart in the source and are kept apart here.

What was measured:
bNAT (basic aaNAT, NATb) = test system: T1, bNAT (basic aaNAT, NATb); experiment: N-acetyltransferase activity of purified fraction; format: biochemical, Periplaneta americana; conditions: co-substrate acetyl CoA; pH not given
T1 construct: native, purified from midgut; 28 kDa by SDS-PAGE; pH optimum 9-10
Excerpt: N-acetyltransferase activity of purified fraction on bNAT (basic aaNAT, NATb)

[1] = test system: T2, aNAT (acidic aaNAT, NATa); experiment: N-acetyltransferase activity of purified fraction; format: biochemical, Periplaneta americana; conditions: co-substrate acetyl CoA; pH not given
T2 construct: native, purified from testicular accessory gland; 28 kDa by SDS-PAGE; pH optimum 5-6
Excerpt: N-acetyltransferase activity of purified fraction on aNAT (acidic aaNAT, NATa)

[2] = molecular target: T3, apaaNAT (aaNAT from A. pernyi) (Antheraea pernyi, UniProt A2SZ52); experiment: N-acetyltransferase activity assay, recombinant enzyme; format: biochemical; conditions: optimal pH 8.0 printed for the enzyme, read-out: apparent Km
T3 construct: cDNA expressed in Sf9 cells by baculovirus
T3 sequence (A2SZ52 1-261): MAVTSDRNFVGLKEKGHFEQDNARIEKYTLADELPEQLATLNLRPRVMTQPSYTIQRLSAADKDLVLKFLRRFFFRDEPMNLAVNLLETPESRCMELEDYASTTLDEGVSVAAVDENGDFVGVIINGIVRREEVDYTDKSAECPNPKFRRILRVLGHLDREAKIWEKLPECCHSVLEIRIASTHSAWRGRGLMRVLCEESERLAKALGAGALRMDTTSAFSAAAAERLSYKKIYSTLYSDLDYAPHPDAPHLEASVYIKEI

SMILES	Km (bNAT (basic aaNAT, NATb)) [µM]	Km [1] [µM]	Km [2] [µM]	Km ([2]; substrate inhibition above 0.03 mM with 0.11 mM acetyl CoA) [µM]
NCCc1c[nH]c2ccc(O)cc12 [5HT]	325	50		
NCCc1ccc(O)c(O)c1 [Dopamine]	1520	25		
COc1ccc2[nH]cc(CCN)c2c1 [Methoxy-TN]	200	25		
NC[C@H](O)c1ccc(O)c(O)c1 [Norepinephrine]		28.6		
NC[C@H](O)c1ccc(O)cc1 [Octopamine]	385	20		
NCCc1ccc(O)cc1 [Tyramine]	15.7	28.6		
CC(=O)SCCNC(=O)CCNC(=O)[C@H](O)C(C)(C)COP(=O)(O)OP(=O)(O)OC[C@H]1O[C@@H](n2cnc3c(N)ncnc32)[C@H](O)[C@@H]1OP(=O)(O)O [acetyl CoA]			1.42	
NCCc1c[nH]c2ccccc12 [tryptamine]	1330	25		3.31
